Measured values from article PMC11823609, “Advancements in the fight against globally distributed OXA-48 carbapenemase: evaluating the new generation of carbapenemase inhibitors” (Antimicrobial Agents and Chemotherapy, 2025).
≈ marks a conversion by molar mass, not a printed value.

Experiments:
Assay in all cases: microbe, parasite or virus in culture
E. coli TG1 (OXA-48) = assay type: cell-based, Escherichia coli; settings: Escherichia coli
Protocol: (§1) The MICs of each of the individual compounds (antibiotics or inhibitors) were also determined. The MICs were determined for the E. coli isogenic expressing OXA-48 (and both OXA-48 and CTX-M-14) to assess their activity against the carbapenemase; MICs were also determined for the 18 Enterobacterales clinical isolates in order to evaluate the new inhibitors against also their resistance concomitant mechanisms. The MICs were determined in triplicate experiments, and the EUCAST 13.0 clinical breakpoints were followed (http://www.eucast.org/clinical_breakpoints).
(§2) For comparative evaluation of the activity of each inhibitor alone against the carbapenemase OXA-48, all inhibitors (at 4 mg/L) were tested in the presence of a carbapenem (ertapenem, adequate substrate) and a cephalosporin (ceftazidime, poor substrate) as reporter substrates. This prevented any possible masking effect produced by the different partner antibiotics. These assays were also performed with isogenic transformants and clinical isolates.

[1] = test system: K. pneumoniae strain 497 (MLST 11, No ESBL); assay type: cell-based; settings: Klebsiella pneumoniae; K. pneumoniae 497; β-lactamase inhibitor alone; read-out: MIC
Protocol: (§3) The efficacy of these new BLIs was also evaluated against 18 genetically diverse WGS-characterized collection of OXA-48-positive Enterobacterales recovered as part of the Carbapenem-resistant Enterobacterales Genome Database Project (https://genomes.cnag.cat/incredble) listed in Table S2 ([13]). Combinations of clinical isolates (five pairs of Klebsiella pneumoniae, two pairs of Enterobacter cloacae, and two pairs of E. coli) were chosen for analysis: (i) nine strains carrying ESBLs; and (ii) nine strains (genetically closer available strains) without ESBLs.
as §1, §2

[2] = test system: E. coli strain 224 (MLST 127, No ESBL); assay type: cell-based; settings: Escherichia coli; E. coli 224; β-lactamase inhibitor alone; read-out: MIC
Protocol: as §3, §1, §2

[3] = test system: K. pneumoniae strain 413 (MLST 147, ESBL); assay type: cell-based; settings: Klebsiella pneumoniae
Protocol: as §3, §1, §2

[4] = test system: K. pneumoniae strain 170 (MLST 307, No ESBL); assay type: cell-based; settings: Klebsiella pneumoniae; K. pneumoniae 170; β-lactamase inhibitor alone; read-out: MIC
Protocol: as §3, §1, §2

[5] = test system: K. pneumoniae strain 237 (MLST 147, No ESBL); assay type: cell-based; settings: Klebsiella pneumoniae; K. pneumoniae 237; β-lactamase inhibitor alone; read-out: MIC
Protocol: as §3, §1, §2

[6] = test system: K. pneumoniae strain 125 (MLST 307, ESBL); assay type: cell-based; settings: Klebsiella pneumoniae
Protocol: as §3, §1, §2

[7] = test system: E. cloacae strain 281 (MLST 78, No ESBL); assay type: cell-based; settings: Enterobacter cloacae; E. cloacae 281; β-lactamase inhibitor alone; read-out: MIC
Protocol: as §3, §1, §2

[8] = test system: K. pneumoniae strain 19 (MLST 11, ESBL); assay type: cell-based; settings: Klebsiella pneumoniae
Protocol: as §3, §1, §2

[9] = test system: E. cloacae strain 272 (MLST 78, ESBL); assay type: cell-based; settings: Enterobacter cloacae
Protocol: as §3, §1, §2

[10] = test system: E. coli strain 264 (MLST 131, No ESBL); assay type: cell-based; settings: Escherichia coli; E. coli 264; β-lactamase inhibitor alone; read-out: MIC
Protocol: as §3, §1, §2

[11] = test system: E. coli strain 177 (MLST 131, ESBL); assay type: cell-based; settings: Escherichia coli
Protocol: as §3, §1, §2

[12] = test system: K. pneumoniae strain 23 (MLST 392, ESBL); assay type: cell-based; settings: Klebsiella pneumoniae
Protocol: as §3, §1, §2

[13] = test system: K. pneumoniae strain 71 (MLST 15, No ESBL); assay type: cell-based; settings: Klebsiella pneumoniae; K. pneumoniae 71; β-lactamase inhibitor alone; read-out: MIC
Protocol: as §3, §1, §2

[14] = test system: K. pneumoniae strain 238 (MLST 15, ESBL); assay type: cell-based; settings: Klebsiella pneumoniae
Protocol: as §3, §1, §2

[15] = test system: E. coli strain 103 (MLST 10, ESBL); assay type: cell-based; settings: Escherichia coli
Protocol: as §3, §1, §2

[16] = test system: E. cloacae strain 231 (MLST 171, No ESBL); assay type: cell-based; settings: Enterobacter cloacae; E. cloacae 231; β-lactamase inhibitor alone; read-out: MIC
Protocol: as §3, §1, §2

[17] = test system: K. pneumoniae strain 194 (MLST 392, No ESBL); assay type: cell-based; settings: Klebsiella pneumoniae; K. pneumoniae 194; β-lactamase inhibitor alone; read-out: MIC
Protocol: as §3, §1, §2

[18] = test system: E. cloacae strain 235 (MLST 171, ESBL); assay type: cell-based; settings: Enterobacter cloacae
Protocol: as §3, §1, §2

[19] = test system: E. coli HB4 ΔompC/F (OXA-48); assay type: cell-based, Escherichia coli; settings: Escherichia coli
Source text: (§4) The E. coli HB4 strain was used to gain a more complete perspective, by evaluating the involvement in resistance of a low permeability background with the carbapenemase OXA-48, as well as coproduction of an ESBL and the carbapenemase; thus, the ESBL CTX-M-14 and OXA-48 were cloned together and separately into E. coli HB4. The characteristics of these strains and transformants are summarized in Table S1, and the cloning procedures are outlined in the supplemental methods.
as §1, §2

[20] = test system: E. coli HB4 ΔompC/F (CTX-M-14 + OXA-48); assay type: cell-based, Escherichia coli; settings: Escherichia coli
Source text: as §4, §1, §2

E. coli HB4 ΔompC/F = assay type: cell-based, Escherichia coli; settings: Escherichia coli
Source text: as §4, §1, §2

## CC1=C[C@@H]2CN(C(=O)N2OS(=O)(=O)O)[C@@H]1C(N)=O [Durlobactam, durlobactam]
E. coli TG1 (OXA-48)
  MIC: 0.12 µg/mL (≈ 0.433 µM)
[1]
  MIC: 2 µg/mL
[2]
  MIC: 0.25 µg/mL
[3]
  MIC: 4 µg/mL
[4]
  MIC: 0.5 µg/mL
[5]
  MIC: 0.5 µg/mL
[6]
  MIC: 2 µg/mL
[7]
  MIC: 4 µg/mL
[8]
  MIC: 2 µg/mL
[9]
  MIC: 1 µg/mL
[10]
  MIC: 0.25 µg/mL
[11]
  MIC: 2 µg/mL
[12]
  MIC: 0.5 µg/mL
[13]
  MIC: 2 µg/mL
[14]
  MIC: 0.5 µg/mL
[15]
  MIC: 0.25 µg/mL
[16]
  MIC: 1 µg/mL
[17]
  MIC: 1 µg/mL
[18]
  MIC: 4 µg/mL
[19]
  MIC: 1 µg/mL (≈ 3.61 µM)
[20]
  MIC: 1 µg/mL (≈ 3.61 µM)
E. coli HB4 ΔompC/F
  MIC: 0.5 µg/mL (≈ 1.8 µM)

## O=C(O)C[C@@H]1CC[C@H](NC(=O)Cc2cccs2)B(O)O1 [Vaborbactam, vaborbactam]
E. coli TG1 (OXA-48)
  MIC: ≥ 128 µg/mL
[1]
  MIC: ≥ 128 µg/mL
[2]
  MIC: ≥ 128 µg/mL
[3]
  MIC: ≥ 128 µg/mL
[4]
  MIC: ≥ 128 µg/mL
[5]
  MIC: ≥ 128 µg/mL
[6]
  MIC: ≥ 128 µg/mL
[7]
  MIC: ≥ 128 µg/mL
[8]
  MIC: ≥ 128 µg/mL
[9]
  MIC: ≥ 128 µg/mL
[10]
  MIC: ≥ 128 µg/mL
[11]
  MIC: ≥ 128 µg/mL
[12]
  MIC: ≥ 128 µg/mL
[13]
  MIC: ≥ 128 µg/mL
[14]
  MIC: ≥ 128 µg/mL
[15]
  MIC: ≥ 128 µg/mL
[16]
  MIC: ≥ 128 µg/mL
[17]
  MIC: ≥ 128 µg/mL
[18]
  MIC: ≥ 128 µg/mL
[19]
  MIC: ≥ 128 µg/mL
[20]
  MIC: ≥ 128 µg/mL
E. coli HB4 ΔompC/F
  MIC: ≥ 128 µg/mL
